For assay [1], the system named is Brain-Specific Receptors of Rats. Nature of the assay: Inhibition of the binding of 3H-benzodiazepine to brain-specific receptors of rats. More on the design: species or system rat (Wistar). The following applies: 3H-diazepam 1.5 nM or 3H-flunitrazepam 1.0 nM; rat cortex P2 fraction; test concentration not given.
Assay [2] deals with Clonic Seizures Caused by Pentylenetetrazole in Rats. Description: Protection against clonic seizures caused by pentylenetetrazole in rats. Format: in vivo. The conditions noted are these: Rattus norvegicus; dose 25.0 mg/kg, oral or i.p.; pentylenetetrazole 23 mg/kg i.v. at 30 or 60 min; read-out: % of Rats Protected. On the procedure: The anti-anxiety and anticonvulsant properties of the novel compounds of the present invention have been established in a test which indicates anxiolytic and antiepileptic activity by the measure of protection from convulsions resulting from the administration of pentylenetetrazole. Single or graded dose levels of the test compounds were administered orally or intraperitoneally in a 2% starch vehicle, containing 0.5% v/v polyethylene glycol and one drop of Polysorbate 80 to groups of at least 4 rats. At 30 or 60 minutes, the rats were treated intravenously with pentylenetetrazole at a dose of 23 mg/kg of body weight. This dose is estimated to cause clonic seizures in 99% of unprotected rats. It has been reported [R. T. Hill and D. H. Tedeschi, "Animal Testing and Screening Procedures in Evaluating Psychotropic Drugs" in "An Introduction to Psychopharmacology", Eds. R. R. Rech and K. E. Moore, Raven Press, New York, pp 237-288 (1971)] that there is a high degree of correlation between antagonism of pentylenetetrazole seizures in rats and anti-anxietyor anticonvulsant effects in higher warm-blooded animals.

We go through 18 compounds from patent publication US4521422A, “Aryl and heteroaryl[7-(aryl and heteroaryl)pyrazolo[1,5-a]pyrimidin-3-yl]methanones” (American Cyanamid Company, priority 1984, dated 1985).

Take `CSc1cccc(-c2ccnc3c(C(=O)c4ccccc4)cnn23)c1` [[7-[3-(methylthio)phenyl]pyrazolo[1,5-a]pyrimidin-3-yl]phenyl-methanone]: the % Inhibition (in general, the share of the control response that was lost under treatment) in assay [1] is on record as 98%.
In the case of `O=C(c1ccccn1)c1cnn2c(-c3ccccn3)ccnc12` [2-pyridinyl[7-(2-pyridinyl)pyrazolo[1,5-a]pyrimidin-3-yl]methanone], the “% Inhibition” value in assay [1] is 77%.
The same measure, in the same setting: with `Cc1ccc(C(=O)c2cnn3c(-c4ccsc4)ccnc23)cc1` [(4-methylphenyl)[7-(3-thienyl)pyrazolo[1,5-a]pyrimidin-3-yl]methanone] the figure was 58%.
The same measure, in the same setting: with `CC(=O)Nc1cccc(-c2ccnc3c(C(=O)c4ccccc4)cnn23)c1` [N--[3-(3-benzoylpyrazolo[1,5-a]pyrimidin-7-yl)phenyl]acetamide] the figure was 65%; with `Cc1cc(-c2cccc(C(F)(F)F)c2)n2ncc(C(=O)c3ccccc3)c2n1` [[5-Methyl-7-[3-(trifluoromethyl)phenyl]pyrazolo[1,5-a]pyrimidin-3-yl]phenyl-methanone], 27%; with `O=C(c1ccccc1)c1cnn2c(-c3ccsc3)ccnc12` [phenyl[7-(3-thienyl)pyrazolo[1,5-a]pyrimidin-3-yl]methanone], 96%.
Consider `O=C(c1cccs1)c1cnn2c(-c3ccncc3)ccnc12` [[7-(4-pyridinyl)pyrazolo[1,5-a]pyrimidin-3-yl]-2-thienyl-methanone], for which, in assay [1], the “% Inhibition” value is recorded as 62%.
Still for that read-out and setting: then `COc1cc(OC)cc(C(=O)c2cnn3c(-c4cccnc4)ccnc23)c1` [(3,5-dimethoxyphenyl)[7-(3-pyridinyl)pyrazolo[1,5-a]pyrimidin-3-yl]methanone], with 30%; and `O=C(c1ccc(F)cc1)c1cnn2c(-c3cc[n+]([O-])cc3)ccnc12` [(4-Fluorophenyl)[7-(4-pyridinyl)pyrazolo[1,5-a]pyrimidin-3-yl]methanone, pyridine-1-oxide], with 15%.
Still for that read-out and setting: with `O=C(c1cccc(C(F)(F)F)c1)c1cnn2c(-c3ccncc3)ccnc12` [[7-(4-pyridinyl)pyrazolo[1,5-a]pyrimidin-3-yl][3-(trifluoromethyl)phenyl]methanone] the figure was 99%.
Consider `CC(=O)Nc1ccc(-c2ccnc3c(C(=O)c4ccccc4)cnn23)cc1` [N-[4-(3-Benzoylpyrazolo[1,5-a]pyrimidin-7-yl)phenyl]acetamide], for which, in assay [1], the “% Inhibition” value was 33%.
Regarding `Cc1nn2c(-c3cccc(C(F)(F)F)c3)ccnc2c1C(=O)c1ccccc1` [(2-methyl-7-[3-(trifluoromethyl)phenyl]pyrazolo[1,5-a]pyrimidin-3-yl)phenyl-methanone], the “% Inhibition” value in assay [1] worked out at 54%.
Same read-out and setting: with `O=C(c1cccc(C(F)(F)F)c1)c1cnn2c(-c3ccco3)ccnc12` [[7-(2-furanyl)pyrazolo[1,5-a]pyrimidin-3-yl][3-(trifluoromethyl)phenyl]methanone] the figure was 36%.
The same measure, in the same setting: with `N#Cc1ccc(-c2ccnc3c(C(=O)c4ccccc4)cnn23)cc1` [4-(3-benzoylpyrazolo[1,5-a]pyrimidin-7-yl)benzonitrile] the figure was 10%.
Consider `Cc1cc(-c2cccnc2)n2ncc(C(=O)c3ccc(F)cc3)c2n1` [(4-fluorophenyl)[5-methyl-7-(3-pyridinyl)pyrazolo[1,5-a]pyrimidin-3-yl]methanone], for which, in assay [1], the “% Inhibition” value was determined as 25%.
Consider `O=C(c1ccc(C(F)(F)F)cc1)c1cnn2c(-c3ccc(Cl)c(Cl)c3)ccnc12` [[7-(3,4-dichlorophenyl)pyrazolo[1,5-a]pyrimidin-3-yl][4-(trifluoromethyl)phenyl]methanone], for which the responders at 25 mg/kg in assay [2] turned out to be 50%.
For `COc1cccc(C(=O)c2cnn3c(-c4ccncc4)ccnc23)c1` [(3-methoxyphenyl)[7-(4-pyridinyl)pyrazolo[1,5-a]pyrimidin-3-yl]methanone], in assay [2], the responders at 25 mg/kg worked out at 50%.
Consider `O=C(c1ccsc1)c1cnn2c(-c3cccc(C(F)(F)F)c3)ccnc12` [3-thienyl[7-[3-(trifluoromethyl)phenyl]pyrazolo[1,5-a]pyrimidin-3-yl]methanone], for which, in assay [2], the responders at 25 mg/kg worked out at 75%.
